7 molecules from patent publication US11542515B2, “Methods and compositions for increasing efficiency of targeted gene modification using oligonucleotide-mediated gene repair” (CIBUS US LLC, priority 2016, dated 2023) can be followed below.

Entries after “also recorded” stand apart in the source; their conditions may differ. In the oligonucleotide strings, read from the 5' end, every base follows the letter of its sugar. An asterisk marks phosphorothioate; unmarked linkages are phosphodiester. Other units and linkages are bracketed, terminal groups are in braces. A string of capitals states the bases alone. d = 2'-deoxy (DNA)

One data set concerns flax calli. The data set can be described thus: Glyphosate tolerance of flax calli (fresh weight). The format is cell-based, Linum usitatissimum. Conditions: edited callus line Y23 / A23, all glyphosate concentrations tested, p<0.01. On the procedure: (§1) Glyphosate tolerance of calli and regenerated plants was assessed in vitro and in the greenhouse, respectively. Individual calli were cloned by cutting and culturing smaller pieces in fresh regeneration medium to increase callus mass. Calli derived from wild type leaf protoplasts were used as negative control. Calli derived from subcultures of individual callus lines were then pooled and broken up into 0.5-1 mm pieces by blending in liquid MS medium (4.33 g/L MS salts, 3% sucrose and 0.1% Morel and Wetmore vitamins) and 0.25 ml of settled callus pieces was inoculated on regeneration medium containing 0, 0.125, 0.25, 0.5, 1.0 or 2.0 mM glyphosate. Treatments were performed in triplicate, and the experiments were repeated three times. Prior to spray tests, regenerated plants were subjected to a hardening period in a growth chamber (Conviron, Winnipeg, MB) under a 16-h photoperiod with day and night temperatures 21° C. and 18° C. respectively. Hardened plants were transferred to the greenhouse for glyphosate treatment. Wild type control and EPSPS edited plants were sprayed with 10.5 mM or 21.0 mM glyphosate (Roundup Pro, Monsanto). Treatment rates were normalized to a 75.7 ai/A (active ingredient per acre) spray volume to replicate field conditions. […] Plants were evaluated and photographed 6 days after the glyphosate treatment to determine herbicide tolerance. […]

The next data set deals with flax plants. The data set can be described thus: Glyphosate spray test of regenerated flax plants in the greenhouse. The format is in vivo, Linum usitatissimum. Conditions: 10.5 or 21.0 mM spray, 6 days after treatment. On the procedure:
as §1

For data set [1], the system named is blue fluorescent protein (BFP) gene. The data set can be described thus: BFP to GFP conversion by GRON, with or without zeocin/phleomycin, in BFP transgenic protoplasts (flow cytometry). The format is cell-based, Arabidopsis thaliana. On the technique in general: A flow cytometer gives signals particle by particle.
Data set [2] shares this test system. The data set is described as above. Type of data set: cell-based, Arabidopsis thaliana. The settings on record: 250 and 1000 μg/ml, 90 min before GRON. An excerpt: Sommer et al., (Mol Biotechnol. 33:115-22, 2006) describes a reporter system for the detection of in vivo gene conversion that relies upon a single nucleotide change to convert between blue and green fluorescence in green fluorescent protein (GFP) variants. This reporter system was adapted for use in the following experiments using Arabidopsis thaliana as a model species in order to assess efficiency of GRON mediated conversion.
In short, for this and the subsequent examples an Arabidopsis thaliana line with multiple copies of a blue fluorescent protein gene was created by methods known to those skilled in the art (see, e.g., Clough and Brent, 1998). […]
The purpose of this series of experiments is to compare the conversion efficiencies of the phosphothioate (PS) labeled GRONs with 3PS moieties at each end of the GRON to 2′-O-Me or “2OMe” in the presence and absence of a member of the bleomycin family, Zeocin™ to induce DNA breaks. […] GRONs were delivered into Arabidopsis thaliana BFP protoplasts by PEG treatment and BFP to GFP conversion was determined at 24 h post treatment by cytometry. […]
Seventy-two h after transfection, cells were analyzed by cytometry using the Attune® Acoustic Focusing cytometer (Applied Biosystems®) with excitation and detection of emission as appropriate for GFP. […]

For a further data set, the system named is bfp gene. The data set can be described thus: BFP to GFP conversion by CRISPR plasmid plus GRON in BFP transgenic protoplasts (flow cytometry). The settings on record: 72 h. Type of data set: cell-based, Arabidopsis thaliana. The procedure: BFP transgenic Arabidopsis thaliana protoplasts derived from induced root tissue were seeded on a flat-bottom 96-well plate, at 250,000 cells per well at a cell density of 1×10^7 cells/ml. The CRISPR encoded plasmids contain the mannopine synthase (MAS) promoter driving the Cas9 coding sequence with an rbcSE9 terminator and the Arabidopsis U6 promoter driving the sgRNA with a poly-T10 terminator. The CRISPR plasmids along with GRON were introduced into protoplasts by PEG mediated delivery at a final concentration of 0.05 μg/μl and 0.16 μM respectively. Protoplasts were incubated in the dark at 23° C. for 72 hours, and then they were analyzed by flow cytometer in order to determine the percentage of GFP positive protoplasts within a given treatment.
The CRISPR consists of two components: the plant codon-optimized Streptococcus pyogenes Cas9 (SpCas9) and sgRNA both of which were expressed from the same plasmid. The sgRNA is a fusion of CRISPR RNA (crRNA) and trans-activating crRNA (tracrRNA). The crRNA region contains the spacer sequence used to guide the Cas9 nuclease to the BFP target gene (FIG. 3). 201-mer GRONs targeting BFP with or without wobble bases were used to determine their effect on the rate of BFP to GFP conversion.
BFP transgenic Arabidopsis thaliana protoplasts derived from induced root tissue were seeded on a flat-bottom 96-well plate, at 250,000 cells per well at a cell density of 1×10^7 cells/ml. […] Protoplasts were incubated in the dark at 23° C. for 72 hours, and then they were analyzed by flow cytometer in order to determine the percentage of GFP positive protoplasts within a given treatment. […]
BFP transgenic Arabidopsis thaliana protoplasts derived from induced root tissue were seeded on a flat-bottom 96-well plate, at 250,000 cells per well at a cell density of 1×10^7 cells/ml. […] Protoplasts were incubated in the dark at 23° C. for 72 hours, and then they were analyzed by flow cytometry in order to determine the percentage of GFP positive protoplasts within a given treatment. […]

The test system of a further data set is accase gene. The data set can be described thus: ACCase conversion in rice protoplasts (NGS). Type of data set: cell-based, Oryza sativa.

Take `O=C(O)CNCP(=O)(O)O` [glyphosate]: the “fresh weight of calli with T97I and P101A edits versus wild type calli” value with flax calli is recorded as “significantly higher”. For the same molecule, in the data set with flax plants, the “phenotype of wild type plants” value was “wilted and necrotic phenotype typical of glyphosate toxicity”. Further, in the data set with flax plants (Y23 / A23 plants), the “phenotype of plants with the edited EPSPS gene” value is on record as “minimal phenotypic change”.

In the case of `Cc1c(N)nc([C@H](CC(N)=O)NC[C@H](N)C(N)=O)nc1C(=O)N[C@H](C(=O)N[C@H](C)[C@@H](O)[C@H](C)C(=O)N[C@H](C(=O)NCCC1=N[C@@H](c2nc(C(=O)NCCCCN=C(N)N)cs2)CS1)[C@@H](C)O)[C@@H](O[C@@H]1O[C@@H](CO)[C@@H](O)[C@H](O)[C@@H]1O[C@H]1O[C@H](CO)[C@@H](O)[C@H](OC(N)=O)[C@@H]1O)c1cnc[nH]1` [zeocin], the “effect of zeocin on BFP to GFP conversion” value in data set [1] (zeocin 1 mg/ml, 90 min on ice prior to PEG treatment with GRON) is recorded as “increased BFP to GFP conversion rates”. Moreover, in data set [2], the “effect of antibiotic pre-treatment on BFP to GFP gene editing” value was “increase in BFP to GFP gene editing”.

Regarding “BFP/41/3PS: BFP GRON with three adjacent PS modifications at each end (sense dG*dC*dT*dGdAdAdGdCdAdCdTdGdCdAdCdGdCdCdGdTdAdGdGdTdAdAdAdCdGdTdGdGdTdCdAdCdGdAdGdGdGdT*dG*dG*dG)”, in the data set on bfp gene, the “BFP to GFP conversion / editing, comparison in words” value (shortened to “BFP to GFP conversion / editing”) is listed as “more BFP to GFP precise scarless edits”.

On to “CG2: BFP antisense 41 nb 3PS modified (antisense dG*dC*dT*dGdAdAdGdCdAdCdTdGdCdAdCdGdCdCdGdTdAdGdGdTdGdAdAdGdGdTdGdGdTdCdAdCdGdA*dG*dG*dG)”, for which, in the data set on bfp gene, the “BFP to GFP conversion / editing” value is on record as “more efficacious”.

For “CG3: BFP sense 41 nb 3PS modified (sense CGCTCGTGACCACCTTCACCTACGGCGTGCAGTGCTTCAGC; linkages s3 o34 s3 (s phosphorothioate, o phosphodiester), sugars by position and methylation of C not given here)”, the “BFP to GFP conversion / editing” value in the data set on bfp gene is “no statistical difference”.

With phleomycin [reference compound], the “number of GFP positive cells compared to the BFP/41/NT control” value in data set [1] (phleomycin 10 μg/mL, GRON BFP/41, 24 h) was “no improvement”. In data set [1] (phleomycin 1000 μg/mL pre-treatment 90 min, GRON BFP/41, 24 h), the “BFP to GFP conversion frequency” value came out at 0.14%. Moreover, in data set [2], the “effect of antibiotic pre-treatment on BFP to GFP gene editing” value is “increase in BFP to GFP gene editing; also recorded: dose-dependent increase in GFP positive cells”.

B1: GRON (SEQ ID NO: 79): Cy3/idC GRON targeting the rice accase gene, Example 21 (nucleic acid)
chain: CTGACCTGAACTTGATCTCAATTAACCCTTGCGGTTCCAGAACATTGCCTTTTGCAGTCCTCTCAGCATAGCACTCAATGCGGTCTGGGTTTATCTTGCTTCCAACGACAACCCAAGCCCCTCCTCGTAGCTCTGCAGCCATGGGAATGTAGACAAAGGCAGGCTGATTGTATGTCCTAAGGTTCTCAACAATAGTCGAGCC
modifications: Cy3 label and idC cap; 5′ CY3/ 3′ 3′DMT dC CPG
For the molecule B1, the ACCase conversion came to 0.026% in the data set on accase gene (CRISPR-Cas plasmid plus GRON, 120 h) and 0.002% in the data set on accase gene (GRON only, no CRISPR-Cas, 120 hours).
